Data published in patent publication US8153647B2, “Aryl- and heteroaryl-ethyl-acylguanidine derivatives, their preparation and their application in therapeutics” (Sanofi-Aventis, priority 2006, dated 2012).
pIC50: −log10 of the molar value. Where a name gives a salt, the structure may show the parent alone.

Legend:
[1] = molecular target: T1, Recombinant human renin (Homo sapiens, UniProt P00797); assay: Renin inhibition in a purified system (FRET, synthetic substrate Dabcyl-gaba-IHPFHLVIHT-EDANS); type: biochemical; conditions: renin 10 nM, substrate 10 μM, 2 h, room temperature, pH 8
T1 construct: made in house; host or cells: Chinese Hamster Ovary (CHO) cells
T1 sequence (P00797 67-406): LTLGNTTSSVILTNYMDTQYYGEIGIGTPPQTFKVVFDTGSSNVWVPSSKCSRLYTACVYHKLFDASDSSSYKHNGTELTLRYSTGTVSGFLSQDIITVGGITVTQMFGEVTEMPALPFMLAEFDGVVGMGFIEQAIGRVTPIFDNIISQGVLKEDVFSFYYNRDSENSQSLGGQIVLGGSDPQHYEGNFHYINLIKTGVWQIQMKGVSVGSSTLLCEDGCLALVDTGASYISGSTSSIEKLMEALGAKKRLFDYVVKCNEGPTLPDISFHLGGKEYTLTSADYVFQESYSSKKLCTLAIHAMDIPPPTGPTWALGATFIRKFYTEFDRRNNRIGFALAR
Procedure: The protocol for the determination in a purified system of the in vitro IC50s of the compounds of the invention is described hereafter.
Recombinant human renin (expressed as prorenin in Chinese Hamster Ovary and purified after activation in active renin using standard methods) at 10 nM concentration is incubated with test compounds at various concentrations and the synthetic substrate Dabcyl-gaba-IHPFHLVIHT-EDANS (Bachem) at 10 μM for 2 h at room temperature, in 0.05 M Tris buffer pH 8 containing 0.1 M NaCl, 2.5 mM EDTA and 1.25 mg/ml bovine serum albumin. Increase in fluorescence (due to the Fluorescence Resonance Energy Transfer) is recorded at an excitation wave-length of 330 nm and at an emission wave length of 485 nm in a microplate spectrofluorometer. IC50 values are calculated from the percentage of inhibition of renin activity as a function of test compound concentration.

Row | Structure (SMILES) | melting point [°C] | pIC50 [1]
1 | CNC(=N)NC(=O)CCc1ccc(-c2cccc(N(C)C(=O)N3CCOCC3)c2)c(OCCCOC)c1.Cl | 54 to 55 | 
2 | COCCCOc1cc(CCC(=O)NC2=NC(=O)C(C)(C)CN2)ccc1-c1ccc(CN2CCC(N(C)C)CC2)cc1.Cl | 132 | 
3 | COCCCOc1cc(CCC(=O)NC(=N)NCCc2ccccn2)ccc1-c1ccc(CN2CCC(N(C)C)CC2)cc1 (as salt: HCl) [Compound 6] | 128 | 
4 | COCCCOc1cc(C(C)(C)CC(=O)NC(=N)N)ccc1-c1ccc(CN2CCC(N(C)C)CC2)cc1 (as salt: HCl) [Compound 22] | 105.5 | 
5 | COCCCOc1cc(CCC(=O)NC(=N)N)ccc1-c1ccc(CN2CCN(C)CC2=O)cc1 (as salt: HCl) [Compound 78] | 61.5 | 
6 | COCCCOc1cc(CCC(=O)NC(=N)N)ccc1-c1ccc(CN2CCC(N(C)C)CC2)cc1 [Compound 2, N-[amino(imino)methyl]-3-[4′-{[4-(dimethylamino)piperidin-1-yl]methyl}-2-(3-methoxypropoxy)biphenyl-4-yl]propanamide hydrochloride] |  | 7.72
7 | COCCCOc1cc(CCC(=O)NC(=N)NCCc2ccccn2)ccc1-c1ccc(CN2CCC(N(C)C)CC2)cc1 [Compound 6] |  | 7.00
8 | COCCCOc1cc(CCC(=O)NC(=N)NCCC(C)C)ccc1-c1ccc(CN2CCC(N(C)C)CC2)cc1 [Compound 11] |  | 7.64
9 | COCCCOc1cc(CCC(=O)NC(=N)N)ccc1-c1ccc(CN2CCCCC2)cc1 [Compound 13, N-[amino(imino)methyl]-3-[2-(3-methoxypropoxy)-4′-(piperidin-1-ylmethyl)biphenyl-4-yl]propanamide hydrochloride] |  | 7.10
10 | COCCCOc1cc(CCC(=O)NC(=N)N)ccc1-c1cccnc1 [Compound 21, hydrochloride] |  | 7.01
11 | COCCCOc1cc(C(C)(C)CC(=O)NC(=N)N)ccc1-c1ccc(CN2CCC(N(C)C)CC2)cc1 [Compound 22] |  | 8.00
12 | CCCNC(=N)NC(=O)CC(C)(C)c1ccc(-c2ccc(C(=O)N3CCN(C)CC3)cc2)c(OCCCOC)c1 [Compound 25, N-[imino(propylamino)methyl]-3-{2-(3-methoxypropoxy)-4′-[(4-methylpiperazin-1-yl)carbonyl]biphenyl-4-yl}-3-methylbutanamide hydrochloride] |  | 6.64
13 | CCCCNC(=N)NC(=O)CCc1ccc(-c2ccc(CN3CCN(CC(=O)N(C)C)CC3)cc2)c(OCCCOC)c1 [Compound 30] |  | 7.15
14 | CCCCNC(=N)NC(=O)CCc1ccc(-c2ccc(CNCC(c3ccccc3)N(C)C)cc2)c(OCCCOC)c1 (stereo not shown) [Compound 48, N-butyl-N′-{3-[4′-[(2-dimethylamino-2-phenyl-ethylamino)-methyl]-2-(3-methoxy-propoxy)-biphenyl-4-yl]-propionyl}-guanidine, trifluoro-acetic acid salt] |  | 6.84
15 | COCCCOc1cc(CCC(=O)NC(=N)N)ccc1-c1ccc(CN2CCN(C)CC2=O)cc1 [Compound 78] |  | 7.38
16 | COCCCOc1cc(CCC(=O)NC(=N)N)ccc1-c1nccs1 [Compound 157] |  | 6.90
17 | COCCCOc1cc(CCC(=O)NC(=N)N)ccc1-c1ccc(CN2CCN(C)C2=O)cc1 [Compound 173] |  | 7.28
18 | COCCCOc1cc(CCC(=O)NC(=N)N)ccc1-c1cccc(CN2CCCCC2=O)c1 [Compound 179] |  | 7.72
19 | CNC(=N)NC(=O)CCc1ccc(-c2ccc(Cl)c(CS(=O)(=O)C(C)(C)C)c2)c(OCCCOC)c1 [Compound 194, 3-{3′-[(tert-butylsulfonyl)methyl]-4′-chloro-2-(3-methoxypropoxy)biphenyl-4-yl}-N-(methylcarbamimidoyl)propanamide hydrochloride] |  | 7.32
